Laboratory results published in ChEMBL document CHEMBL1127611 (J Med Chem, 1994).

Each molecule was assayed against T1, Vesicular acetylcholine transporter (Torpedo californica, UniProt P81721) (assay: In vitro binding affinity to vesamicol receptor using [3H]vesamicol.).
T1 sequence (P81721 whole entry): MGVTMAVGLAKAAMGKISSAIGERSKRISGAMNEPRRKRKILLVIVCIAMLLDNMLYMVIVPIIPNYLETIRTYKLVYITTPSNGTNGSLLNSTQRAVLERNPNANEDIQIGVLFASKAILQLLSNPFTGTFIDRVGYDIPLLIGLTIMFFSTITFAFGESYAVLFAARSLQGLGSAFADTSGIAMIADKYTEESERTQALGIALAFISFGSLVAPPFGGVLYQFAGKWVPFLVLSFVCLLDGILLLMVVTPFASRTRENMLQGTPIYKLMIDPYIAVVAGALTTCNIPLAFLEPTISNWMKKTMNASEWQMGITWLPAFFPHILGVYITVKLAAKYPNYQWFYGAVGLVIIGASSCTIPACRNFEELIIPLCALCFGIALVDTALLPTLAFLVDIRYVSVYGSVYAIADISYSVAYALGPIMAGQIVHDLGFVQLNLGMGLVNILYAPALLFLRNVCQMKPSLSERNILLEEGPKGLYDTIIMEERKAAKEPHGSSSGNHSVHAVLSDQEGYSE
Parameters: species or system Tetronarce californica
Molecule `O[C@@H]1CCN(Cc2ccccc2I)C[C@H]1N1CCC(c2ccccc2)CC1` has a Ki of 0.147 nM. With `O[C@@H]1CCN(Cc2ccc(I)cc2)C[C@H]1N1CCC2(CCc3ccccc32)CC1` the Ki was 0.8 nM. Work on `O[C@@H]1Cc2ccccc2C[C@H]1N1CCC2(C=Cc3c(Br)cccc32)CC1` yielded a Ki of 0.212 nM. For `O[C@@H]1CCCC[C@H]1N1CCC2(CCc3ccccc32)CC1`, the Ki was 7.59 nM. Molecule `O[C@@H]1CCN(Cc2cccc(I)c2)C[C@H]1N1CCC2(CCCc3ccccc32)CC1` has a Ki of 0.856 nM. For `O[C@@H]1Cc2ccccc2C[C@H]1N1CCC2(CC1)C(Br)=Cc1ccccc12`, the Ki was 0.41 nM. For `O[C@@H]1Cc2ccccc2C[C@H]1N1CCC2(C=Cc3ccc(Br)cc32)CC1`, the Ki was 1.4 nM. `O[C@@H]1Cc2ccccc2C[C@H]1N1CCC2(C=Cc3cc(Br)ccc32)CC1` showed a Ki of 0.271 nM. `O[C@@H]1CCN(Cc2ccccc2I)C[C@H]1N1CCC2(CCc3ccccc32)CC1` was tested, and the Ki was 0.98 nM. Work on `O[C@@H]1CCN(Cc2cccc(I)c2)C[C@H]1N1CCC(c2ccccc2)CC1` yielded a Ki of 0.063 nM. `O[C@@H]1CCN(Cc2ccccc2I)C[C@H]1N1CCC2(CCCc3ccccc32)CC1` was tested, and the Ki was 5.8 nM. `O[C@@H]1CCN(Cc2ccc(I)cc2)C[C@H]1N1CCC(c2ccccc2)CC1` showed a Ki of 0.05 nM. For `O[C@@H]1CCN(Cc2ccc(F)cc2)C[C@H]1N1CCC2(CCCc3ccccc32)CC1`, the Ki was 2.64 nM. `O[C@@H]1CCN(Cc2cccc(I)c2)C[C@H]1N1CCC2(C=Cc3ccccc32)CC1` showed a Ki of 0.264 nM. `O[C@@H]1CCN(Cc2ccccc2I)C[C@H]1N1CCC2(C=Cc3ccccc32)CC1` showed a Ki of 0.798 nM. `O[C@@H]1CCN(Cc2ccc(I)cc2)C[C@H]1N1CCC2(CCCc3ccccc32)CC1` gave a Ki of 0.638 nM. `O[C@@H]1CCCC[C@H]1N1CCC2(C=Cc3ccccc32)CC1` was tested, and the Ki was 6.93 nM. For `Nc1cccc2c1C[C@@H](N1CCC(c3ccccc3)CC1)[C@H](O)C2`, the Ki was 0.0065 nM. Molecule `O[C@@H]1CCN(Cc2ccc(F)cc2)C[C@H]1N1CCC2(CCc3ccccc32)CC1` has a Ki of 0.36 nM. `O[C@@H]1Cc2ccccc2C[C@H]1N1CCC2(CCCc3ccccc32)CC1` showed a Ki of 18.4 nM. For `O[C@@H]1Cc2ccccc2C[C@H]1N1CCC2(CCc3ccccc32)CC1`, the Ki was 0.36 nM. Work on `O[C@@H]1Cc2ccccc2C[C@H]1N1CCC2(C=Cc3ccccc32)CC1` yielded a Ki of 0.121 nM. For `O[C@@H]1CCCC[C@H]1N1CCC2(CCCc3ccccc32)CC1`, the Ki was 24.2 nM. For `O[C@@H]1CCN(Cc2ccc(F)cc2)C[C@H]1N1CCC2(C=Cc3ccccc32)CC1`, the Ki was 0.248 nM. `O[C@@H]1CCN(Cc2ccc(I)cc2)C[C@H]1N1CCC2(C=Cc3ccccc32)CC1` showed a Ki of 0.762 nM.
